This note sets out measurements from PubChem BioAssay AID1259407 (Chemical Carcinogenesis Research Information System (CCRIS), 2018).

The test system of this series is CCRIS mutagenicity, Ames/micronucleus/aberration tests. Description: CCRIS mutagenicity studies. From the text:
The CCRIS database contains chemical records with carcinogenicity, mutagenicity, tumor promotion, and tumor inhibition test results. It was developed by the National Cancer Institute (NCI). Data are derived from studies cited in primary journals, current awareness tools, NCI reports, and other sources. Test results have been reviewed by experts in carcinogenesis and mutagenesis.
CCRIS provides historical information from the years 1985 - 2011. It is no longer updated.
This is an archive assay for CCRIS mutagenicity studies.

Setting [1] is: Test System: AMES SALMONELLA TYPHIMURIUM, Strain/Indicator: TA98, Metabolic Activation: NONE, Method: PREINCUBATION
[2] abbreviates: Test System: AMES SALMONELLA TYPHIMURIUM, Strain/Indicator: TA100, Metabolic Activation: NONE, Method: PREINCUBATION
[3] abbreviates: Test System: AMES SALMONELLA TYPHIMURIUM, Strain/Indicator: TA1535, Metabolic Activation: NONE, Method: PREINCUBATION
Setting [4] is: Test System: AMES SALMONELLA TYPHIMURIUM, Strain/Indicator: TA1537, Metabolic Activation: NONE, Method: PREINCUBATION
The mark [5] stands for this setting: Test System: AMES SALMONELLA TYPHIMURIUM, Strain/Indicator: TA98, Metabolic Activation: RAT, LIVER, S-9, AROCLOR 1254, Method: PREINCUBATION

Activity calls are given as the source filed them. No rule for the calls is given here.

Take `O=C(ON=C1C=CC(=NOC(=O)c2ccccc2)C=C1)c1ccccc1`: the mutagenic call is “inactive; negative” (End Point: IN VITRO CHROMOSOMAL ABERRATIONS, Test System: CHL CELLS, Metabolic Activation: RAT, LIVER, S-9, SODIUM PHENOBARBITAL AND 5,6-BENZOFLAVONE); “active; positive” under setting [1]; “active; positive” (Test System: AMES SALMONELLA TYPHIMURIUM, Strain/Indicator: TA98, Metabolic Activation: RAT LIVER S-9, PHENOBARBITAL AND BETA-NAPHTHOFLAVONE, Method: PREINCUBATION); “inactive; negative” under setting [2]; “active; positive” (Test System: AMES SALMONELLA TYPHIMURIUM, Strain/Indicator: TA100, Metabolic Activation: RAT LIVER S-9, PHENOBARBITAL AND BETA-NAPHTHOFLAVONE, Method: PREINCUBATION); “inactive; negative” under setting [3]. Also, the mutagenic call runs as follows: (Test System: AMES SALMONELLA TYPHIMURIUM, Strain/Indicator: TA1535, Metabolic Activation: RAT LIVER S-9, PHENOBARBITAL AND BETA-NAPHTHOFLAVONE, Method: PREINCUBATION) “inactive; negative”; under setting [4], “inactive; negative”; (Test System: AMES SALMONELLA TYPHIMURIUM, Strain/Indicator: TA1537, Metabolic Activation: RAT LIVER S-9, PHENOBARBITAL AND BETA-NAPHTHOFLAVONE, Method: PREINCUBATION) “active; positive”; (Test System: AMES SALMONELLA TYPHIMURIUM, Strain/Indicator: TA1538, Metabolic Activation: NONE, Method: PREINCUBATION) “active; positive”; (Test System: AMES SALMONELLA TYPHIMURIUM, Strain/Indicator: TA1538, Metabolic Activation: RAT LIVER S-9, PHENOBARBITAL AND BETA-NAPHTHOFLAVONE, Method: PREINCUBATION) “active; positive”; (Test System: E.COLI, Strain/Indicator: WP2UVRA, Metabolic Activation: NONE, Method: PREINCUBATION) “inactive; negative”. Also, the mutagenic call (Test System: E.COLI, Strain/Indicator: WP2UVRA, Metabolic Activation: RAT LIVER S-9, PHENOBARBITAL AND BETA-NAPHTHOFLAVONE, Method: PREINCUBATION) is “inactive; negative”.
Take `CC(=O)Nc1ccc(Oc2ccc(N=O)cc2)cc1`: the mutagenic call (Test System: AMES SALMONELLA TYPHIMURIUM, Strain/Indicator: TA98(1,8-DNP6), Metabolic Activation: NONE, Method: PREINCUBATION) is “active; positive”; the mutagenic call (Test System: AMES SALMONELLA TYPHIMURIUM, Strain/Indicator: TA98(1,8-DNP6), Metabolic Activation: RAT, LIVER, S-9, AROCLOR 1254, Method: PREINCUBATION) was “active; positive”; the mutagenic call (Test System: AMES SALMONELLA TYPHIMURIUM, Strain/Indicator: TA98(NR), Metabolic Activation: NONE, Method: PREINCUBATION) was “active; positive”; the mutagenic call (Test System: AMES SALMONELLA TYPHIMURIUM, Strain/Indicator: TA98(NR), Metabolic Activation: RAT, LIVER, S-9, AROCLOR 1254, Method: PREINCUBATION) was “active; positive”; the mutagenic call under setting [1] is “active; positive”; the mutagenic call under setting [5] is “active; positive”. Moreover, the mutagenic call is, setting by setting: (Test System: AMES SALMONELLA TYPHIMURIUM, Strain/Indicator: TA100(NR), Metabolic Activation: NONE, Method: PREINCUBATION) “active; positive”; under setting [2], “active; positive”.
`CCCCOB(OCCCC)OCCCC`: the mutagenic call is “inactive; negative” (Test System: AMES SALMONELLA TYPHIMURIUM, Strain/Indicator: TA98, Metabolic Activation: HAMSTER, LIVER, S-9, AROCLOR 1254, Method: PREINCUBATION); “inactive; negative” under setting [1]; “inactive; negative” under setting [5]; “inactive; negative” (Test System: AMES SALMONELLA TYPHIMURIUM, Strain/Indicator: TA100, Metabolic Activation: HAMSTER, LIVER, S-9, AROCLOR 1254, Method: PREINCUBATION); “inactive; negative” under setting [2]; “inactive; negative” (Test System: AMES SALMONELLA TYPHIMURIUM, Strain/Indicator: TA100, Metabolic Activation: RAT, LIVER, S-9, AROCLOR 1254, Method: PREINCUBATION). In addition, the mutagenic call by setting is: (Test System: AMES SALMONELLA TYPHIMURIUM, Strain/Indicator: TA1535, Metabolic Activation: HAMSTER, LIVER, S-9, AROCLOR 1254, Method: PREINCUBATION) “inactive; negative”; under setting [3], “inactive; negative”; (Test System: AMES SALMONELLA TYPHIMURIUM, Strain/Indicator: TA1535, Metabolic Activation: RAT, LIVER, S-9, AROCLOR 1254, Method: PREINCUBATION) “inactive; negative”; (Test System: AMES SALMONELLA TYPHIMURIUM, Strain/Indicator: TA1537, Metabolic Activation: HAMSTER, LIVER, S-9, AROCLOR 1254, Method: PREINCUBATION) “inactive; negative”; under setting [4], “inactive; negative”; (Test System: AMES SALMONELLA TYPHIMURIUM, Strain/Indicator: TA1537, Metabolic Activation: RAT, LIVER, S-9, AROCLOR 1254, Method: PREINCUBATION) “inactive; negative”.
Take `O[C@@H]1C=Cc2c(ccc3cc4ccccc4cc23)[C@H]1O`: the mutagenic call (Test System: CHINESE HAMSTER V-79, Strain/Indicator: V-79/OUABAIN, Metabolic Activation: CELL-MEDIATED, Method: STANDARD PLATE) was “active; positive”.
As for `CN(Cc1cccc(C(F)(F)F)c1)N=O`, the mutagenic call by setting is: (Test System: AMES SALMONELLA TYPHIMURIUM, Strain/Indicator: TA1535, Metabolic Activation: HAMSTER, LIVER, S-9, AROCLOR 1254, Method: STANDARD PLATE) “active; positive”; (Test System: AMES SALMONELLA TYPHIMURIUM, Strain/Indicator: TA1535, Metabolic Activation: NONE, Method: STANDARD PLATE) “inactive; negative”.
For the molecule `O=C(O)/C(Cl)=C(/CCl)C(=O)O`, the mutagenic call under setting [1] was “inactive; negative”; the mutagenic call under setting [2] was “inactive; negative”; the mutagenic call (Test System: AMES SALMONELLA TYPHIMURIUM, Strain/Indicator: TA104, Metabolic Activation: NONE, Method: PREINCUBATION) is “inactive; negative”.
